Read-outs that look alike come from different tables or passages of the source.
Target: human PAD4 (hPAD4) (Homo sapiens, UniProt Q9UM07)
Test: RFMS Human PAD4 Functional Assay
Assay type: biochemical
Settings: 5 nM hPAD4, 250 μM BAEE
In short: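 RapidFire ESI-MS quantification, normalised to a modified-citrulline internal standard, after phenyl glyoxal (final 4 mM) derivatisation of the TCA-quenched reaction. The enzyme (10 nM) sat 30 min with compound (up to 50 μM final) before 500 μM BAEE (as added) started a 90 min, 37 °C reaction. Buffer: HEPES pH 7.5, 50 μM calcium, 5 μM TPEN.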

[1] = hPAD4 RFMS IC50, human PAD4, rapid-fire mass spectrum (RFMS) assay
[2] = human PAD4, rapid-fire mass spectrum (RFMS) assay, read-out: hPAD4 RFMS IC50

human PAD4 (hPAD4), sequence (Q9UM07 whole entry): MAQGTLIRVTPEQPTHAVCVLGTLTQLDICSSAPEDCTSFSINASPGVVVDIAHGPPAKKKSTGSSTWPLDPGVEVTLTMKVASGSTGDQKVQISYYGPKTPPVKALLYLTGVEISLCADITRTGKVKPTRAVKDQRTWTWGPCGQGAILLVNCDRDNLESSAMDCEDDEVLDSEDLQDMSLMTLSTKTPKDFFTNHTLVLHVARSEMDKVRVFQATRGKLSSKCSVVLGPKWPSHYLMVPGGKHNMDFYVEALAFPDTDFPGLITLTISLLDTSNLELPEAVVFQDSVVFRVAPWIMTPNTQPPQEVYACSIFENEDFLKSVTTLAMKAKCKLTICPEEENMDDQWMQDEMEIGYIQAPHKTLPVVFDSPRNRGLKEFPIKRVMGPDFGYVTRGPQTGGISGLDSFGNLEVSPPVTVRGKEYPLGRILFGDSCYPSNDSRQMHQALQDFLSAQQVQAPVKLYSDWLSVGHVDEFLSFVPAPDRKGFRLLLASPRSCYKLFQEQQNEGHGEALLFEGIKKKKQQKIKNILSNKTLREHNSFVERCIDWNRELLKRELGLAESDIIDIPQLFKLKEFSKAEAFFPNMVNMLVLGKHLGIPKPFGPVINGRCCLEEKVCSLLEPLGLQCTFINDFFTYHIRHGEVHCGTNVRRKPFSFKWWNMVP

| IC50 [1] [nM] | IC50 [2] [nM] | SMILES |
| --- | --- | --- |
| 10 |  | COc1cc(C(=O)N2C[C@H]3CC[C@@H]2[C@@H]3N)cc2nc(-c3cc4cccc(C5CN(C(=O)Cc6ccccc6)C5)c4n3CC3CC3)n(C)c12 [Example 72, 1-[3-(2-{5-[(1R,4R,7R)-7-amino-2-azabicyclo[2.2.1]heptane-2-carbonyl]-7-methoxy-1-methyl-1H-1,3-benzodiazol-2-yl}-1-(cyclopropylmethyl)-1H-indol-7-yl)azetidin-1-yl]-2-phenylethan-1-one] |
| 5 |  | COc1cc(C(=O)N2C[C@H]3CC[C@@H]2[C@@H]3N)cc2nc(-c3cc4cccc(C5CN(C(=O)Cc6ccncc6)C5)c4n3CC3CC3)n(C)c12 [Example 73, 1-[3-(2-{5-[(1R,4R,7R)-7-amino-2-azabicyclo[2.2.1]heptane-2-carbonyl]-7-methoxy-1-methyl-1H-1,3-benzodiazol-2-yl}-1-(cyclopropylmethyl)-1H-indol-7-yl)azetidin-1-yl]-2-(pyridin-4-yl)ethan-1-one] |
| 71 |  | COc1cc(C(=O)N2C[C@H]3CC[C@@H]2[C@@H]3N)cc2nc(-c3cc4cccc(C5CN(C(=O)c6ccccc6)C5)c4n3CC3CC3)n(C)c12 [Example 74, (1R,4R,7R)-2-{2-[7-(1-benzoylazetidin-3-yl)-1-(cyclopropylmethyl)-1H-indol-2-yl]-7-methoxy-1-methyl-1H-1,3-benzodiazole-5-carbonyl}-2-azabicyclo[2.2.1]heptan-7-amine] |
| 34 |  | COc1cc(C(=O)N2C[C@H]3CC[C@@H]2[C@@H]3N)cc2nc(-c3cc4cccc(C5CN(C(=O)Cc6ccccn6)C5)c4n3CC3CC3)n(C)c12 [Example 75, 1-[3-(2-{5-[(1R,4R,7R)-7-amino-2-azabicyclo[2.2.1]heptane-2-carbonyl]-7-methoxy-1-methyl-1H-1,3-benzodiazol-2-yl}-1-(cyclopropylmethyl)-1H-indol-7-yl)azetidin-1-yl]-1-(pyridin-2-yl)ethan-1-one] |
| 19 |  | COc1cc(C(=O)N2C[C@H]3CC[C@@H]2[C@@H]3N)cc2nc(-c3cc4cccc(C5CN(C(=O)Cc6cnccn6)C5)c4n3CC3CC3)n(C)c12 [Example 76, 1-[3-(2-{5-[(1R,4R,7R)-7-amino-2-azabicyclo[2.2.1]heptane-2-carbonyl]-7-methoxy-1-methyl-1H-1,3-benzodiazol-2-yl}-1-(cyclopropylmethyl)-1H-indol-7-yl)azetidin-1-yl]-2-(pyrazin-2-yl)ethan-1-one] |
| 38 |  | COc1cc(C(=O)N2C[C@H]3CC[C@@H]2[C@@H]3N)cc2nc(-c3cc4cccc(C5CN(C(=O)CC#N)C5)c4n3CC3CC3)n(C)c12 [Example 77, 3-[3-(2-{5-[(1R,4R,7R)-7-amino-2-azabicyclo[2.2.1]heptane-2-carbonyl]-7-methoxy-1-methyl-1H-1,3-benzodiazol-2-yl}-1-(cyclopropylmethyl)-1H-indol-7-yl)azetidin-1-yl]-3-oxopropanenitrile] |
| 10 |  | COc1cc(C(=O)N2C[C@H]3CC[C@@H]2[C@@H]3N)cc2nc(-c3cc4cccc(C5CN(C(=O)Cc6cccnc6)C5)c4n3CC3CC3)n(C)c12 [Example 78, 1-[3-(2-{5-[(1R,4R,7R)-7-amino-2-azabicyclo[2.2.1]heptane-2-carbonyl]-7-methoxy-1-methyl-1H-1,3-benzodiazol-2-yl}-1-(cyclopropylmethyl)-1H-indol-7-yl)azetidin-1-yl]-2-(pyridin-3-yl)ethan-1-one] |
| 12 |  | COc1cc(C(=O)N2C[C@H]3CC[C@@H]2[C@@H]3N)cc2nc(-c3cc4cccc(C5CN(C(=O)CCc6ccccc6)C5)c4n3CC3CC3)n(C)c12 [Example 79, 1-[3-(2-{5-[(1R,4R,7R)-7-amino-2-azabicyclo[2.2.1]heptane-2-carbonyl]-7-methoxy-1-methyl-1H-1,3-benzodiazol-2-yl}-1-(cyclopropylmethyl)-1H-indol-7-yl)azetidin-1-yl]-3-phenylpropan-1-one] |
| 16 |  | COc1cc(C(=O)N2C[C@H]3CC[C@@H]2[C@@H]3N)cc2nc(-c3cc4cccc(C5CN(C(=O)CCO)C5)c4n3CC3CC3)n(C)c12 [Example 80, 1-[3-(2-{5-[(1R,4R,7R)-7-amino-2-azabicyclo[2.2.1]heptane-2-carbonyl]-7-methoxy-1-methyl-1H-1,3-benzodiazol-2-yl}-1-(cyclopropylmethyl)-1H-indol-7-yl)azetidin-1-yl]-3-hydroxypropan-1-one] |
| 16 |  | COc1cc(C(=O)N2C[C@H]3CC[C@@H]2[C@@H]3N)cc2nc(-c3cc4cccc(C5CN(C(=O)Cc6nnn[nH]6)C5)c4n3CC3CC3)n(C)c12 [Example 81, 1-[3-(2-{5-[(1R,4R,7R)-7-amino-2-azabicyclo[2.2.1]heptane-2-carbonyl]-7-methoxy-1-methyl-1H-1,3-benzodiazol-2-yl}-1-(cyclopropylmethyl)-1H-indol-7-yl)azetidin-1-yl]-2-(1H-1,2,3,4-tetrazol-5-yl)ethan-1-one] |
| 10 |  | COc1cc(C(=O)N2C[C@H]3CC[C@@H]2[C@@H]3N)cc2nc(-c3cc4cccc(C5CN(C(=O)CO)C5)c4n3CC3CC3)n(C)c12 [Example 82, 1-[3-(2-{5-[(1R,4R,7R)-7-amino-2-azabicyclo[2.2.1]heptane-2-carbonyl]-7-methoxy-1-methyl-1H-1,3-benzodiazol-2-yl}-1-(cyclopropylmethyl)-1H-indol-7-yl)azetidin-1-yl]-2-hydroxyethan-1-one] |
| 123 |  | COc1cc(C(=O)N2C[C@H]3CC[C@@H]2[C@@H]3N)cc2nc(-c3cc4cccc(C5CN(S(=O)(=O)c6ccccc6)C5)c4n3CC3CC3)n(C)c12 [Example 83, (1R,4R,7R)-2-(2-{7-[1-(benzenesulfonyl)azetidin-3-yl]-1-(cyclopropylmethyl)-1H-indol-2-yl}-7-methoxy-1-methyl-1H-1,3-benzodiazole-5-carbonyl)-2-azabicyclo[2.2.1]heptan-7-amine] |
|  | 34 | COc1cc(C(=O)N2C[C@H]3CC[C@@H]2[C@@H]3N)cc2nc(-c3cc4cccc(C5=CCNCC5)c4n3CC3CC3)n(C)c12 [Example 84] |
|  | 111 | COc1cc(C(=O)N2C[C@H]3CC[C@@H]2[C@@H]3N)cc2nc(-c3cc4cccc(-c5ccccc5O)c4n3CC3CC3)n(C)c12 [Example 87, 2-(2-{5-[(1R,4R,7R)-7-amino-2-azabicyclo[2.2.1]heptane-2-carbonyl]-7-methoxy-1-methyl-1H-1,3-benzodiazol-2-yl}-1-(cyclopropylmethyl)-1H-indol-7-yl)phenol] |
| 56 |  | C=CC(=O)Nc1cccc(-c2cccc3cc(-c4nc5cc(C(=O)N6C[C@H]7CC[C@@H]6[C@@H]7N)cc(OC)c5n4C)n(CC4CC4)c23)c1 [Example 88, N-[3-(2-{5-[(1R,4R,7R)-7-amino-2-azabicyclo[2.2.1]heptane-2-carbonyl]-7-methoxy-1-methyl-1H-1,3-benzodiazol-2-yl}-1-(cyclopropylmethyl)-1H-indol-7-yl)phenyl]prop-2-enamide] |
| 108 |  | COc1cc(C(=O)N2C[C@H]3CC[C@@H]2[C@@H]3N)cc2nc(-c3cc4cccc(-c5ccc(CNC(C)=O)cc5)c4n3CC3CC3)n(C)c12 [Example 89, N-{[4-(2-{5-[(1R,4R,7R)-7-amino-2-azabicyclo[2.2.1]heptane-2-carbonyl]-7-methoxy-1-methyl-1H-1,3-benzodiazol-2-yl}-1-(cyclopropylmethyl)-1H-indol-7-yl)phenyl]methyl}acetamide] |
| 45 |  | COc1cc(C(=O)N2C[C@H]3CC[C@@H]2[C@@H]3N)cc2nc(-c3cc4cccc(-c5ccc(O)c(F)c5)c4n3CC3CC3)n(C)c12 [Example 90, 4-(2-{5-[(1R,4R,7R)-7-amino-2-azabicyclo[2.2.1]heptane-2-carbonyl]-7-methoxy-1-methyl-1H-1,3-benzodiazol-2-yl}-1-(cyclopropylmethyl)-1H-indol-7-yl)-2-fluorophenol] |
| 42 |  | COc1cc(-c2cccc3cc(-c4nc5cc(C(=O)N6C[C@H]7CC[C@@H]6[C@@H]7N)cc(OC)c5n4C)n(CC4CC4)c23)ccc1O [Example 91, 4-(2-{5-[(1R,4R,7R)-7-amino-2-azabicyclo[2.2.1]heptane-2-carbonyl]-7-methoxy-1-methyl-1H-1,3-benzodiazol-2-yl}-1-(cyclopropylmethyl)-1H-indol-7-yl)-2-methoxyphenol] |
| 58 |  | COc1cc(C(=O)N2C[C@H]3CC[C@@H]2[C@@H]3N)cc2nc(-c3cc4cccc(-c5ccc(O)c(Cl)c5)c4n3CC3CC3)n(C)c12 [Example 92, 4-(2-{5-[(1R,4R,7R)-7-amino-2-azabicyclo[2.2.1]heptane-2-carbonyl]-7-methoxy-1-methyl-1H-1,3-benzodiazol-2-yl}-1-(cyclopropylmethyl)-1H-indol-7-yl)-2-chlorophenol] |
| 53 |  | COc1cc(C(=O)N2C[C@H]3CC[C@@H]2[C@@H]3N)cc2nc(-c3cc4cccc(-c5ccc(O)cc5Cl)c4n3CC3CC3)n(C)c12 [Example 93, 4-(2-{5-[(1R,4R,7R)-7-amino-2-azabicyclo[2.2.1]heptane-2-carbonyl]-7-methoxy-1-methyl-1H-1,3-benzodiazol-2-yl}-1-(cyclopropylmethyl)-1H-indol-7-yl)-3-chlorophenol] |
| 45 |  | COc1cc(C(=O)N2C[C@H]3CC[C@@H]2[C@@H]3N)cc2nc(-c3cc4cccc(-c5cc(F)c(O)cc5F)c4n3CC3CC3)n(C)c12 [Example 94, 4-(2-{5-[(1R,4R,7R)-7-amino-2-azabicyclo[2.2.1]heptane-2-carbonyl]-7-methoxy-1-methyl-1H-1,3-benzodiazol-2-yl}-1-(cyclopropylmethyl)-1H-indol-7-yl)-2,5-difluorophenol] |
| 107 |  | COc1cc(C(=O)N2C[C@H]3CC[C@@H]2[C@@H]3N)cc2nc(-c3cc4cccc(-c5ccc6[nH]c(=O)cc(C)c6c5)c4n3CC3CC3)n(C)c12 [Example 95, 6-(2-{5-[(1R,4R,7R)-7-amino-2-azabicyclo[2.2.1]heptane-2-carbonyl]-7-methoxy-1-methyl-1H-1,3-benzodiazol-2-yl}-1-(cyclopropylmethyl)-1H-indol-7-yl)-4-methyl-1,2-dihydroquinolin-2-one] |
